Measured values reported in BindingDB's records for doi:10.1016/j.bioorg.2017.03.015 (Silesian University of Technology, 2017).
pIC50: −log10 of the molar value.

Biological target: T1, Beta-1,4-galactosyltransferase 1 (Bos taurus, UniProt P08037)
T1 sequence (P08037 whole entry): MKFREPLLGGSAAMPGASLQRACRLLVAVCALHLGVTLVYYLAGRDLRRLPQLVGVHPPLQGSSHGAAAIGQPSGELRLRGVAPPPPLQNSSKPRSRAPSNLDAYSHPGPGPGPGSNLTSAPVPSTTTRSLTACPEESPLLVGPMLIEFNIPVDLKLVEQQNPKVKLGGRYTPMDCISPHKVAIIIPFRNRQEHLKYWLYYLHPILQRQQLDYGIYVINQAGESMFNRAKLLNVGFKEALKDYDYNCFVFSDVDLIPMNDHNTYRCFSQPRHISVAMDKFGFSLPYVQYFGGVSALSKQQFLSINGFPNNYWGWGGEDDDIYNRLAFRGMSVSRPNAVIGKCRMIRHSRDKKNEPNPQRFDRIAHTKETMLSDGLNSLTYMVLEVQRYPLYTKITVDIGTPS
Experiment: β-1,4-Galactosyltransferase I Assay
Conditions: pH 5.4; 30 °C
Method: β4GalT activity was assayed using UDP-Gal as glycosyl donor and (6-esculetinyl) β-D-glucopyranoside (esculine) as glycosyl acceptor. Assays were performed in a total volume of 200 μL. The reaction mixtures contained reagents in the following final concentrations: 50 mM Hepes buffer (pH 5.4), 10 mM MnCl2, 2.0 mg/mL BSA, 200 μM esculine, 40 μM UDP-Gal, 10 μL MeOH and potential inhibitors 1-6 at 0.8 mM concentration. The enzymatic reactions were initiated by the addition of 1 mU β4GalT and incubated at 30 °C for 60 min. Inactivation was quickly done by placing of the reaction solutions for 3 min in a thermo block set to 90 °C. Thesolutions were diluted with water (300 μL) and centrifuged for 20 min, filtered through M.E. Cellulose filter (0.2 μm × 13 mm) and the filtrate was injected into RP-HPLC system.

pIC50: 3.14
SMILES: O=c1ccn([C@@H]2O[C@H](Cn3cc(CO[C@@H]4OC(CO)[C@@H](O)C(O)C4O)nn3)C(O)C2O)c(=O)[nH]1 (stereo partly drawn) [5'-deoxy-5'-[4-(β-D-glucopyranosyloxymethyl)-1,2-3-triazol-1-yl]uridine (5)]
